{
  "source": "patent US12173135B2",
  "about": "“Plasticizer and plastic product” (LARGAN MEDICAL CO., LTD., priority 2019, dated 2024)",
  "assay": "biodegradation tests (ASTM 5338) of the plasticizers",
  "procedure": "The biodegradation tests (ASTM 5338) of the plasticizers with different molecular structures are performed below. The comparison, the 29th Example and the 30th Example are tested, and the degrees of degradation under different days are listed in the following table.",
  "data": [
    {"smiles": "O=C(OCCOC(=O)c1ccccc1O)c1ccccc1O", "note": "[30th Example]", "values": [
      {"measurement": "Degree of Degradation (%)", "setting": "day 0", "result": 0, "unit": "%"},
      {"measurement": "Degree of Degradation (%)", "setting": "day 3", "result": 3.21, "unit": "%"},
      {"measurement": "Degree of Degradation (%)", "setting": "day 7", "result": 1.97, "unit": "%"},
      {"measurement": "Degree of Degradation (%)", "setting": "day 12", "result": 1.09, "unit": "%"},
      {"measurement": "Degree of Degradation (%)", "setting": "day 15", "result": 1.87, "unit": "%"},
      {"measurement": "Degree of Degradation (%)", "setting": "day 19", "result": 4.13, "unit": "%"},
      {"measurement": "Degree of Degradation (%)", "setting": "day 24", "result": 6.63, "unit": "%"},
      {"measurement": "Degree of Degradation (%)", "setting": "day 28", "result": 13.13, "unit": "%"},
      {"measurement": "Degree of Degradation (%)", "setting": "day 33", "result": 17.63, "unit": "%"},
      {"measurement": "Degree of Degradation (%)", "setting": "day 36", "result": 26.70, "unit": "%"},
      {"measurement": "Degree of Degradation (%)", "setting": "day 40", "result": 33.47, "unit": "%"},
      {"measurement": "Degree of Degradation (%)", "setting": "day 45", "result": 38.10, "unit": "%"},
      {"measurement": "Degree of Degradation (%)", "setting": "day 49", "result": 43.93, "unit": "%"},
      {"measurement": "Degree of Degradation (%)", "setting": "day 54", "result": 47.28, "unit": "%"},
      {"measurement": "Degree of Degradation (%)", "setting": "day 58", "result": 60.14, "unit": "%"},
      {"measurement": "Degree of Degradation (%)", "setting": "day 63", "result": 67.90, "unit": "%"},
      {"measurement": "Degree of Degradation (%)", "setting": "day 67", "result": 69.50, "unit": "%"},
      {"measurement": "Degree of Degradation (%)", "setting": "day 71", "result": 71.37, "unit": "%"},
      {"measurement": "Degree of Degradation (%)", "setting": "day 75", "result": 72.99, "unit": "%"},
      {"measurement": "Degree of Degradation (%)", "setting": "day 81", "result": 73.19, "unit": "%"},
      {"measurement": "Degree of Degradation (%)", "setting": "day 85", "result": 73.19, "unit": "%"},
      {"measurement": "Degree of Degradation (%)", "setting": "day 89", "result": 73.53, "unit": "%"},
      {"measurement": "Degree of Degradation (%)", "setting": "day 93", "result": 78.89, "unit": "%"},
      {"measurement": "Degree of Degradation (%)", "setting": "day 98", "result": 78.51, "unit": "%"},
      {"measurement": "Degree of Degradation (%)", "setting": "day 102", "result": 78.14, "unit": "%"},
      {"measurement": "Degree of Degradation (%)", "setting": "day 105", "result": 78.50, "unit": "%"},
      {"measurement": "Degree of Degradation (%)", "setting": "day 109", "result": 81.63, "unit": "%"},
      {"measurement": "Degree of Degradation (%)", "setting": "day 114", "result": 81.09, "unit": "%"},
      {"measurement": "Degree of Degradation (%)", "setting": "day 118", "result": 84.55, "unit": "%"},
      {"measurement": "Degree of Degradation (%)", "setting": "day 124", "result": 84.55, "unit": "%"},
      {"measurement": "Degree of Degradation (%)", "setting": "day 128", "result": 86.04, "unit": "%"},
      {"measurement": "Degree of Degradation (%)", "setting": "day 132", "result": 86.55, "unit": "%"},
      {"measurement": "Degree of Degradation (%)", "setting": "day 137", "result": 86.81, "unit": "%"},
      {"measurement": "Degree of Degradation (%)", "setting": "day 140", "result": 86.58, "unit": "%"},
      {"measurement": "Degree of Degradation (%)", "setting": "day 144", "result": 86.58, "unit": "%"},
      {"measurement": "Degree of Degradation (%)", "setting": "day 147", "result": 87.69, "unit": "%"},
      {"measurement": "Degree of Degradation (%)", "setting": "day 151", "result": 88.54, "unit": "%"},
      {"measurement": "Degree of Degradation (%)", "setting": "day 155", "result": 88.54, "unit": "%"},
      {"measurement": "Degree of Degradation (%)", "setting": "day 158", "result": 87.80, "unit": "%"},
      {"measurement": "Degree of Degradation (%)", "setting": "day 161", "result": 87.80, "unit": "%"},
      {"measurement": "Degree of Degradation (%)", "setting": "day 165", "result": 87.80, "unit": "%"},
      {"measurement": "Degree of Degradation (%)", "setting": "day 168", "result": 88.40, "unit": "%"},
      {"measurement": "Degree of Degradation (%)", "setting": "day 172", "result": 89.55, "unit": "%"},
      {"measurement": "Degree of Degradation (%)", "setting": "day 175", "result": 89.91, "unit": "%"},
      {"measurement": "Degree of Degradation (%)", "setting": "day 179", "result": 91.46, "unit": "%"}
    ]},
    {"smiles": "CCCCCCCCOC(=O)CC(N)C(=O)OCCCCCCCC", "note": "(racemic) [29th Example]", "values": [
      {"measurement": "Degree of Degradation (%)", "setting": "day 0", "result": 0, "unit": "%"},
      {"measurement": "Degree of Degradation (%)", "setting": "day 3", "result": 6.70, "unit": "%"},
      {"measurement": "Degree of Degradation (%)", "setting": "day 7", "result": 8.53, "unit": "%"},
      {"measurement": "Degree of Degradation (%)", "setting": "day 12", "result": 20.53, "unit": "%"},
      {"measurement": "Degree of Degradation (%)", "setting": "day 15", "result": 26.53, "unit": "%"},
      {"measurement": "Degree of Degradation (%)", "setting": "day 19", "result": 35.22, "unit": "%"},
      {"measurement": "Degree of Degradation (%)", "setting": "day 24", "result": 44.08, "unit": "%"},
      {"measurement": "Degree of Degradation (%)", "setting": "day 28", "result": 48.75, "unit": "%"},
      {"measurement": "Degree of Degradation (%)", "setting": "day 33", "result": 51.62, "unit": "%"},
      {"measurement": "Degree of Degradation (%)", "setting": "day 36", "result": 53.72, "unit": "%"},
      {"measurement": "Degree of Degradation (%)", "setting": "day 40", "result": 55.78, "unit": "%"},
      {"measurement": "Degree of Degradation (%)", "setting": "day 45", "result": 57.19, "unit": "%"},
      {"measurement": "Degree of Degradation (%)", "setting": "day 49", "result": 58.41, "unit": "%"},
      {"measurement": "Degree of Degradation (%)", "setting": "day 54", "result": 59.35, "unit": "%"},
      {"measurement": "Degree of Degradation (%)", "setting": "day 58", "result": 59.61, "unit": "%"},
      {"measurement": "Degree of Degradation (%)", "setting": "day 63", "result": 59.85, "unit": "%"},
      {"measurement": "Degree of Degradation (%)", "setting": "day 67", "result": 60.34, "unit": "%"},
      {"measurement": "Degree of Degradation (%)", "setting": "day 71", "result": 62.58, "unit": "%"},
      {"measurement": "Degree of Degradation (%)", "setting": "day 75", "result": 63.96, "unit": "%"},
      {"measurement": "Degree of Degradation (%)", "setting": "day 81", "result": 63.75, "unit": "%"},
      {"measurement": "Degree of Degradation (%)", "setting": "day 85", "result": 62.72, "unit": "%"},
      {"measurement": "Degree of Degradation (%)", "setting": "day 89", "result": 64.14, "unit": "%"},
      {"measurement": "Degree of Degradation (%)", "setting": "day 93", "result": 65.04, "unit": "%"},
      {"measurement": "Degree of Degradation (%)", "setting": "day 98", "result": 65.04, "unit": "%"},
      {"measurement": "Degree of Degradation (%)", "setting": "day 102", "result": 66.44, "unit": "%"},
      {"measurement": "Degree of Degradation (%)", "setting": "day 105", "result": 66.44, "unit": "%"},
      {"measurement": "Degree of Degradation (%)", "setting": "day 109", "result": 66.25, "unit": "%"},
      {"measurement": "Degree of Degradation (%)", "setting": "day 114", "result": 66.04, "unit": "%"},
      {"measurement": "Degree of Degradation (%)", "setting": "day 118", "result": 66.80, "unit": "%"},
      {"measurement": "Degree of Degradation (%)", "setting": "day 124", "result": 66.80, "unit": "%"},
      {"measurement": "Degree of Degradation (%)", "setting": "day 128", "result": 67.01, "unit": "%"},
      {"measurement": "Degree of Degradation (%)", "setting": "day 132", "result": 66.81, "unit": "%"},
      {"measurement": "Degree of Degradation (%)", "setting": "day 137", "result": 66.81, "unit": "%"},
      {"measurement": "Degree of Degradation (%)", "setting": "day 140", "result": 66.81, "unit": "%"},
      {"measurement": "Degree of Degradation (%)", "setting": "day 144", "result": 66.01, "unit": "%"},
      {"measurement": "Degree of Degradation (%)", "setting": "day 147", "result": 64.81, "unit": "%"},
      {"measurement": "Degree of Degradation (%)", "setting": "day 151", "result": 64.62, "unit": "%"},
      {"measurement": "Degree of Degradation (%)", "setting": "day 155", "result": 64.23, "unit": "%"},
      {"measurement": "Degree of Degradation (%)", "setting": "day 158", "result": 65.50, "unit": "%"},
      {"measurement": "Degree of Degradation (%)", "setting": "day 161", "result": 66.30, "unit": "%"},
      {"measurement": "Degree of Degradation (%)", "setting": "day 165", "result": 66.92, "unit": "%"},
      {"measurement": "Degree of Degradation (%)", "setting": "day 168", "result": 65.84, "unit": "%"},
      {"measurement": "Degree of Degradation (%)", "setting": "day 172", "result": 67.51, "unit": "%"},
      {"measurement": "Degree of Degradation (%)", "setting": "day 175", "result": 69.97, "unit": "%"},
      {"measurement": "Degree of Degradation (%)", "setting": "day 179", "result": 71.93, "unit": "%"}
    ]}
  ]
}
